Experimental data published in PubChem BioAssay AID1918954 (Molecular Pharmacology Branch, DTP, NCI, 2023).

System: MDA-MB-468 complex spheroids with HUVEC/MSC, viability
Assay: Anticancer human tumor MDA-MB-468 cell line growth inhibition;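 also: spheroids exposed to agents for seven days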;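 as to viability, T/C: 100% = DMSO vehicle control viability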
Conditions: for IC50: curve of first compound; for viability, T/C: stronger effect = lower value
Source text: Multicellular complex tumor spheroid response to LSD1 Inhibitor Iadademstat in combination with a variety of drugs and investigational agents in selected tumor cell lines
The current study was undertaken to assess response to LSD1 inhibitors in combination with standard-of-care drugs and investigational agents in solid tumor complex spheroid models as well as in the K-562 leukemia. Complex spheroids include a stromal component modeled by human endothelial cells (HUVEC) and fibroblasts modeled by human mesenchymal stem cells (MSCs). The concentration ranges selected for each drug and investigational agent were based upon clinically achievable concentrations if the clinical Cmax of the agent was known.
Compounds. The drugs and investigational agents used in this study are listed on Table 1. All of the agents used, including staurosporine (NSC755774) and gemcitabine (NSC613327), were obtained from the Developmental Therapeutics Program, NCI. FDA-approved anticancer drugs are available from the NCI at http://dtp.nci.nih.gov/branches/dscb/oncology_drugset_explanation.html. Drugs and investigational agents were >95% pure by proton nuclear magnetic resonance (NMR) and liquid chromatography/mass spectrometry (LC/MS). Stock solutions were prepared at 400x in DMSO, stored at -70 degrees C, and diluted in fresh medium prior to their use. The final concentration of DMSO in cell culture wells never exceeded 0.25% (v/v). The FDA-approved anticancer drug set is available from the Developmental Therapeutics Program at https://dtp.cancer.gov/organization/dscb/obtaining/available_plates.htm. All drugs and investigational agents were tested over a range starting from a high concentration at or near the clinical Cmax and decreasing in half-log increments. If the clinical Cmax for an agent had not been determined, the highest concentration tested was 10 microM.
Cell Lines. The patient-derived cancer cell (PDC) lines: 292921-168-R-J2-PDC, K24384-001-R-PDC, and 521955-158-R2-J5-PDC pancreatic carcinomas, 556581-035-R-J1 ovarian carcinoma, 324938-238-R-J1-PDC, 855422-203-R-J1-PDC and 883617-216-R-J1-PDC urothelial bladder carcinomas, 743489-274-T-PDC renal cell carcinoma, 138582-R-J1 Merkel cell tumor, K60290-347-R-J1 and K57222-313-R-J1-PDC glioblastomas, 653999-131-R-J2-PDC, LG0703-F948-PDC, and 349418-098-R-PDC non-small cell lung carcinomas, 885512-296-R-J2-PDC, 171881-019-R-J1-PDC breast carcinomas and 186277-243-T-J2-PDC and 233499-124-R-J2-PDC colon carcinomas were obtained from the NCI Patient-Derived Models Repository (PDMR, https://pdmr.cancer.gov). The established cell lines NCI/ADR-RES (RRID:CVCL_14520 and OVCAR-5 (RRID:CVCL_1628) ovarian carcinomas, 786-O (RRID:CVCL_1051) and A498 (RRID:CVCL_A498) renal cell carcinoma, NCI-H211 (ATCC, cat. CRL-5824; RRID:CVCL_1529), NCI-H196 (ATCC, cat. CRL-5823, RRID:CVCL_1509), SW 1271 (ATCC, cat. CRL-2177, RRID:CVCL_1716) and NCI-H1876 (ATCC, cat. CRL-5902, RRID:CVCL_1503) small cell lung carcinomas, MDA-MB-231 (RRID:CVCL_0062) and MDA-MB-468 (RRID:CVCL_0419)breast carcinomas (10-12). Pooled donor human umbilical vein endothelial cells (HUVEC, Lonza, cat. CC-2519) and human mesenchymal stem cells (hMSC, Lonza, cat. PT-2501) were purchased from Lonza (Walkersville, MD).
Cell Culture. All cells were maintained in an incubator at 37 degrees C and 5% CO2 with 95% humidity. The PDC lines were cultured according to standard operating procedures established by the NCI PDMR (https://pdmr.cancer.gov). Briefly all PDCs were thawed and cultured in Matrigel-coated flasks prepared with a working solution of 1X Ham's F-12 nutrient mix, without supplementation (Invitrogen, Waltham, MA, cat. 11765054), 100 U/mL penicillin-streptomycin (Invitrogen, cat. 15140122), and 2.5% Matrigel (Corning Inc., Corning, NY, cat. 354248) for the first three passages. […]

## COc1ccc([C@@H](O)c2cc(-c3ncnc4cc(N5CCOCC5)ccc34)c(F)cc2Cl)nn1 + NC1CCC(NC2CC2c2ccccc2)CC1
Second compound 0.1 µM
  IC50: 1070 nM
Second compound 0.316 µM
  IC50: 1160 nM
Second compound 1 µM
  IC50: 817 nM
Second compound 3.16 µM
  IC50: 832 nM
Second compound 10 µM
  IC50: 1340 nM
Second compound 0.1 µM, first compound 0.0316 µM
  viability, T/C: 97.8%
Second compound 0.1 µM, first compound 0.1 µM
  viability, T/C: 83.5%
Second compound 0.1 µM, first compound 0.316 µM
  viability, T/C: 68%
Second compound 0.1 µM, first compound 1 µM
  viability, T/C: 50%
Second compound 0.1 µM, first compound 3.16 µM
  viability, T/C: 35%
Second compound 0.1 µM, first compound 10 µM
  viability, T/C: 12.8%
Second compound 0.316 µM, first compound 0.0316 µM
  viability, T/C: 101%
Second compound 0.316 µM, first compound 0.1 µM
  viability, T/C: 83.7%
Second compound 0.316 µM, first compound 0.316 µM
  viability, T/C: 71.7%
Second compound 0.316 µM, first compound 1 µM
  viability, T/C: 52.3%
Second compound 0.316 µM, first compound 3.16 µM
  viability, T/C: 33.6%
Second compound 0.316 µM, first compound 10 µM
  viability, T/C: 13.1%
Second compound 1 µM, first compound 0.0316 µM
  viability, T/C: 90.5%
Second compound 1 µM, first compound 0.1 µM
  viability, T/C: 86.9%
Second compound 1 µM, first compound 0.316 µM
  viability, T/C: 58.3%
Second compound 1 µM, first compound 1 µM
  viability, T/C: 45.9%
Second compound 1 µM, first compound 3.16 µM
  viability, T/C: 33.9%
Second compound 1 µM, first compound 10 µM
  viability, T/C: 12.5%
Second compound 3.16 µM, first compound 0.0316 µM
  viability, T/C: 100%
Second compound 3.16 µM, first compound 0.1 µM
  viability, T/C: 64.9%
Second compound 3.16 µM, first compound 0.316 µM
  viability, T/C: 61.7%
Second compound 3.16 µM, first compound 1 µM
  viability, T/C: 55.4%
Second compound 3.16 µM, first compound 3.16 µM
  viability, T/C: 33.2%
Second compound 3.16 µM, first compound 10 µM
  viability, T/C: 15.6%
Second compound 10 µM, first compound 0.0316 µM
  viability, T/C: 51.3%
Second compound 10 µM, first compound 0.1 µM
  viability, T/C: 58.3%
Second compound 10 µM, first compound 0.316 µM
  viability, T/C: 57.5%
Second compound 10 µM, first compound 1 µM
  viability, T/C: 55%
Second compound 10 µM, first compound 3.16 µM
  viability, T/C: 35.2%
Second compound 10 µM, first compound 10 µM
  viability, T/C: 12.7%

## O=C(C=Cc1cccc(S(=O)(=O)Nc2ccccc2)c1)NO + NC1CCC(NC2CC2c2ccccc2)CC1
Second compound 0.1 µM
  IC50: 81.6 nM
Second compound 0.316 µM
  IC50: 77.5 nM
Second compound 1 µM
  IC50: 67.3 nM
Second compound 3.16 µM
  IC50: 61.3 nM
Second compound 10 µM
  IC50: 9.78 nM
Second compound 0.1 µM, first compound 0.00949 µM
  viability, T/C: 90.7%
Second compound 0.1 µM, first compound 0.03 µM
  viability, T/C: 81.5%
Second compound 0.1 µM, first compound 0.0949 µM
  viability, T/C: 44.5%
Second compound 0.1 µM, first compound 0.3 µM
  viability, T/C: 15%
Second compound 0.1 µM, first compound 0.949 µM
  viability, T/C: 2.65%
Second compound 0.1 µM, first compound 3 µM
  viability, T/C: 4.46%
Second compound 0.316 µM, first compound 0.00949 µM
  viability, T/C: 86.7%
Second compound 0.316 µM, first compound 0.03 µM
  viability, T/C: 73.6%
Second compound 0.316 µM, first compound 0.0949 µM
  viability, T/C: 45.1%
Second compound 0.316 µM, first compound 0.3 µM
  viability, T/C: 17%
Second compound 0.316 µM, first compound 0.949 µM
  viability, T/C: 2.84%
Second compound 0.316 µM, first compound 3 µM
  viability, T/C: 4.29%
Second compound 1 µM, first compound 0.00949 µM
  viability, T/C: 74.1%
Second compound 1 µM, first compound 0.03 µM
  viability, T/C: 65.7%
Second compound 1 µM, first compound 0.0949 µM
  viability, T/C: 42.9%
Second compound 1 µM, first compound 0.3 µM
  viability, T/C: 18.7%
Second compound 1 µM, first compound 0.949 µM
  viability, T/C: 3.4%
Second compound 1 µM, first compound 3 µM
  viability, T/C: 3.26%
Second compound 3.16 µM, first compound 0.00949 µM
  viability, T/C: 68.9%
Second compound 3.16 µM, first compound 0.03 µM
  viability, T/C: 64.4%
Second compound 3.16 µM, first compound 0.0949 µM
  viability, T/C: 41%
Second compound 3.16 µM, first compound 0.3 µM
  viability, T/C: 15.4%
Second compound 3.16 µM, first compound 0.949 µM
  viability, T/C: 3.52%
Second compound 3.16 µM, first compound 3 µM
  viability, T/C: 3.55%
Second compound 10 µM, first compound 0.00949 µM
  viability, T/C: 49.8%
Second compound 10 µM, first compound 0.03 µM
  viability, T/C: 48.4%
Second compound 10 µM, first compound 0.0949 µM
  viability, T/C: 36.3%
Second compound 10 µM, first compound 0.3 µM
  viability, T/C: 13.8%
Second compound 10 µM, first compound 0.949 µM
  viability, T/C: 3.3%
Second compound 10 µM, first compound 3 µM
  viability, T/C: 2.37%
